Like-named read-outs stand apart in the source and are kept apart here.

In this assay the target is T1, human histamine H3 receptor (Homo sapiens, UniProt Q9Y5N1).
T1 construct: host or cells: cells expressing the human H3 receptor
Put plainly: H3 GTPγS assay (SPA method), histamine H3 in vitro assay. The assay is classed as biochemical. As for the experimental part:
H3 GTPγS assay (SPA method) was performed at EuroScreen (Belgium, ES-392-C) using conventional methods. Briefly, cells expressing the human histamine H3 receptor were homogenized in 15 mM Tris-HCl pH 7.5, 2 mM MgCl2, 0.3 mM EDTA, and 1 mM EGTA. Membranes were washed twice in the above tris buffer, collected by centrifugation (40,000×g, 25 min), and re-suspended in 75 mM Tris-HCl pH 7.5, 12.5 mM MgCl2, 0.3 mM EDTA, 1 mM EGTA, and 250 mM sucrose. Membranes were frozen in liquid nitrogen until use. On the day of the assay, membranes were thawed and diluted in assay buffer (20 mM HEPES pH 7.4, 100 mM NaCl, 10 μg/ml saponin, 1 mM MgCl2) to give 500 μg/ml and mixed (v/v) with GDP in assay buffer for a final GDP concentration of 10 μM and incubated on ice for at least 15 min. PVT-WGA beads (Amersham, RPNQ001) were diluted in assay buffer at 50 mg/mL and mixed with GTPγ[^35S] (Amersham, SJ1308) diluted in assay buffer to give ˜25,000 dpm/10 μL, and mixed vol/vol just before the start of the reaction. The reaction was started by adding 50 μL of test compound, 20 μL of the membranes:GDP mix, 10 μL of buffer, and 20 μL of the GTPγ[^35S]:beads mix in a 96 well plate Optiplate™ (PerkinElmer, 6005299) covered with topseal (TopCount™, PerkinElmer), mixed with an orbital shaker for 2 min, incubated for 1 hour at room temperature, centrifuged for 10 min at 2000 rpm, incubated for 1 h at room temperature, and counted for 1 min in a TopCount™ reader (PerkinElmer). Dose response curves and IC50 values (concentration to inhibit the reaction by 50%) were calculated by nonlinear regression using XLfit software (IDBS).
For antagonists testing, 10 μL of a reference agonist (R-γ-Me-Histamine) instead of 10 μL buffer was added at a concentration corresponding to the EC80 (30 nM). Control ligands were R-γ-Me-Histamine (Tocris, 0569), Imetit (Sigma, I-135), Thioperamide (Tocris, 0644), and Clobenpropit (Tocris, 0754) diluted in assay buffer.
The compounds provided herein were tested in the histamine H3 in vitro assay. In one embodiment, the respective HCl salts of the compounds provided herein were prepared using standard chemical procedures and tested in the histamine H3 in vitro assay.

The mark [1] stands for this setting: GTPγ[35S] SPA, membranes of cells expressing human H3 receptor, in one embodiment HCl salts tested, read-out: Potency (functional potency as indicated by IC50).

T1 sequence (Q9Y5N1 whole entry): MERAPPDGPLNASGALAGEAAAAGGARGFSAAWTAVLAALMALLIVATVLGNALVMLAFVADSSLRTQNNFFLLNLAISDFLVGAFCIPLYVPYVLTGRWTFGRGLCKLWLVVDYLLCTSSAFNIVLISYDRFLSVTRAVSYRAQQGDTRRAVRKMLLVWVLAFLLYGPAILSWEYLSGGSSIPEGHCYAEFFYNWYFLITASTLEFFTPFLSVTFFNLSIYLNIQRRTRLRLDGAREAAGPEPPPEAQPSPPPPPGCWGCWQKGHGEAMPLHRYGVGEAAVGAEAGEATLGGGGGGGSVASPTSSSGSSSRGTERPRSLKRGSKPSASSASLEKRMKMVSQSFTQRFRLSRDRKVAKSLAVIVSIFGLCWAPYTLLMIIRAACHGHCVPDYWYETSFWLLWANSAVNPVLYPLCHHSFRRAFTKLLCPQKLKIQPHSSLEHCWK

In general, IC50 refers to the concentration at which inhibition is half-maximal. In the case of `Brc1ccc2c(c1)CC1(CCN3CCCC3C1)O2` (stereo not shown) [Compound 89, 5-Bromo-2′,3′,5′,6′,8′,8a′-hexahydro-1′H,3H-spiro[benzofuran-2,7′-indolizine]], the IC50 under setting [1] was at most 100 nM.
Take `c1cc2cc(-c3ccc4c(c3)CC3(CCN(C5CCC5)CC3)O4)ccc2[nH]1` [Compound 7, 1′-Cyclobutyl-5-(1H-indol-5-yl)-3H-spiro[benzofuran-2,4′-piperidine]]: the IC50 under setting [1] is at most 100 nM.
Take `CN1CCC(N2CCC3(CC2)Cc2cc(-c4ccc5[nH]ccc5c4)ccc2O3)CC1` [Compound 10, 5-(1H-Indol-5-yl)-1′-(1-methylpiperidin-4-yl)-3H-spiro[benzofuran-2,4′-piperidine]]: the IC50 under setting [1] is at most 1000 nM.
With `c1cc2ncc(-c3ccc4c(c3)CC3(CCN(C5CCC5)CC3)O4)cc2o1` [Compound 60, 1′-Cyclobutyl-5-(furo[3,2-b]pyridin-6-yl)-3H-spiro[benzofuran-2,4′-piperidine]], the IC50 under setting [1] was at most 10 nM.
On to “5-((3,4-Dihydroisoquinolin-2(1H)-yl)methyl)-2′,3′,4′,6′,7′,9′,10′,10a′-octahydro-1′H,3H-spiro[benzofuran-2,8′-pyrido[1,2-a]azepine] and 5-((3,4-dihydroisoquinolin-2(1H)-yl)methyl)-2′,3′,4′,6′,7′,8′,10′,10a′-octahydro-1′H,3H-spiro[benzofuran-2,9′-pyrido[1,2-a]azepine] [88/88a]”, for which the IC50 under setting [1] was at most 100 nM.
Turning to `CC(=O)Nc1ccc(-c2ccc3c(c2)CC2(CCN(C4CCC4)CC2)O3)cc1` [Compound 6, N-(4-(1′-Cyclobutyl-3H-spiro[benzofuran-2,4′-piperidine]-5-yl)phenyl)acetamide], under setting [1], the IC50 is at most 10 nM.
As to “5-Bromo-2′,3′,4′,6′,7′,9′,10′,10a′-octahydro-1′H,3H-spiro[benzofuran-2,8′-pyrido[1,2-a]azepine] and 5-bromo-2′,3′,4′,6′,7′,8′,10′,10a′-octahydro-1′H,3H-spiro[benzofuran-2,9′-pyrido[1,2-a]azepine] [82/82a]”, under setting [1], the IC50 is at most 1000 nM.
Turning to `N#Cc1ccc(-c2ccc3c(c2)CC2(CCC4CCCCN4CC2)O3)cc1` (stereo not shown) [Compound 85, 4-(2′,3′,4′,6′,7′,9′,10′,10a′-Octahydro-1′H,3H-spiro[benzofuran-2,8′-pyrido[1,2-a]azepin]-5-yl)benzonitrile], the IC50 under setting [1] is at most 10 nM.
On to `N#Cc1ccc(-c2ccc3c(c2)CC2(CCN4CCCC4C2)O3)cc1` (stereo not shown) [Compound 90, 4-(2′,3′,5′,6′,8′,8a′-Hexahydro-1′H,3H-spiro[benzofuran-2,7′-indolizin]-5-yl)benzonitrile], for which the IC50 under setting [1] was at most 10 nM.
`CN1CCN(c2ccc3c(c2)OC2(CCN(C4CCC4)CC2)C3)CC1` [Compound 38, 1′-Cyclobutyl-6-(4-methylpiperazin-1-yl)-3H-spiro[benzofuran-2,4′-piperidine]]: the IC50 under setting [1] is at most 100 nM.
As to `c1cc2c(cc1CN1CCOCC1)CC1(CCN3CCCC3C1)O2` (stereo not shown) [Compound 92, 5-(Morpholinomethyl)-2′,3′,5′,6′,8′,8a′-hexahydro-1′H,3H-spiro[benzofuran-2,7′-indolizine]], the IC50 under setting [1] is at most 10 nM.
Turning to `c1nc2ccc(-c3ccc4c(c3)CC3(CCN(C5CCC5)CC3)O4)cn2n1` [Compound 62, 5-([1,2,4]Triazolo[1,5-a]pyridin-6-yl)-1′-cyclobutyl-3H-spiro[benzofuran-2,4′-piperidine]], the IC50 under setting [1] was at most 10 nM.
On to `c1cn2cc(-c3ccc4c(c3)CC3(CCN5CCCC5C3)O4)ccc2n1` (stereo not shown) [Compound 91, 5-(Imidazo[1,2-a]pyridin-6-yl)-2′,3′,5′,6′,8′,8a′-hexahydro-1′H,3H-spiro[benzofuran-2,7′-indolizine]], for which the IC50 under setting [1] was at most 10 nM.
As to `N#Cc1ccc(-c2ccc3c(c2)OC2(CCN(C4CCC4)CC2)C3)cc1` [Compound 35, 4-(1′-Cyclobutyl-3H-spiro[benzofuran-2,4′-piperidine]-6-yl)benzonitrile], under setting [1], the IC50 is at most 100 nM.
In the case of `c1cc2ncc(-c3ccc4c(c3)CC3(CCN(C5CCC5)CC3)O4)cc2[nH]1` [Compound 59, 1′-Cyclobutyl-5-(1H-pyrrolo[3,2-b]pyridin-6-yl)-3H-spiro[benzofuran-2,4′-piperidine]], the IC50 under setting [1] was at most 10 nM.
Regarding `c1cn2cc(-c3ccc4c(c3)CC3(CCCN(C5CCC5)CC3)O4)ccc2n1` (stereo not shown) [Compound 49, 1-Cyclobutyl-5′-(imidazo[1,2-a]pyridin-6-yl)-3′H-spiro[azepane-4,2′-benzofuran]], under setting [1], the IC50 is at most 100 nM.
`N#Cc1ccc(NCc2ccc3c(c2)OC2(CCN(C4CCC4)CC2)C3)cc1` [Compound 46, 4-((1′-Cyclobutyl-3H-spiro[benzofuran-2,4′-piperidine]-6-yl)methylamino)benzonitrile]: under setting [1], the IC50 is at most 100 nM.
Same read-out and setting: with `CC(C1CCC1)N1CCC2(CC1)Cc1cc(-c3ccc(C#N)cc3)ccc1O2` (stereo not shown) [Compound 11, 4-(1′-(1-Cyclobutylethyl)-3H-spiro[benzofuran-2,4′-piperidine]-5-yl)benzonitrile] the figure was at most 10 nM; with `CN1CCC(N2CCC3(CC2)Cc2cc(-c4ccc(C#N)cc4)ccc2O3)CC1` [Compound 8, 4-(1′-(1-Methylpiperidin-4-yl)-3H-spiro[benzofuran-2,4′-piperidine]-5-yl)benzonitrile], at most 100 nM.
Regarding `c1cc2c(cc1N1CCCCC1)CC1(CCCN(C3CCC3)CC1)O2` (stereo not shown) [Compound 51, 1-Cyclobutyl-5′-(piperidin-1-yl)-3′H-spiro[azepane-4,2′-benzofuran]], the IC50 under setting [1] was at most 100 nM.
Take `c1ccc2c(c1)ncn2-c1ccc2c(c1)C[C@]1(CCCN(C3CCC3)CC1)O2` (single isomer, unassigned) [Compound 52, 5′-(1H-Benzo[d]imidazol-1-yl)-1-cyclobutyl-3′H-spiro[azepane-4,2′-benzofuran]]: the IC50 under setting [1] was at most 100 nM.
As for `N#Cc1ccc(-c2ccc3c(c2)CC2(CCN(C4CCCCC4)CC2)O3)cc1` [Compound 20, 4-(1′-Cyclohexyl-3H-spiro[benzofuran-2,4′-piperidine]-5-yl)benzonitrile], the IC50 under setting [1] is at most 100 nM.
On the same count and under the same terms, with `N#Cc1ccc(-c2ccc3c(c2)OC2(CCCN(C4CCC4)CC2)C3)cc1` (stereo not shown) [Compound 68, 4-(1-Cyclobutyl-3′H-spiro[azepane-4,2′-benzofuran]-6′-yl)benzonitrile] the figure was at most 100 nM.
Same read-out and setting: the same measure for `Cn1cnc2cc(-c3ccc4c(c3)CC3(CCN(C5CCC5)CC3)O4)cnc21` [Compound 61, 1′-Cyclobutyl-5-(3-methyl-3H-imidazo[4,5-b]pyridin-6-yl)-3H-spiro[benzofuran-2,4′-piperidine]]: at most 10 nM.
For the compound `N#Cc1ccc(-c2ccc3c(c2)CC2(CCN4CCCCC4C2)O3)cc1` (stereo not shown) [Compound 74, 4-(-1′,3′,4′,6′,7′,8′,9′,9a′-Octahydro-3H-spiro[benzofuran-2,2′-quinolizin]-5-yl)benzonitrile], the half-maximal inhibitory concentration (IC50) under setting [1] was at most 10 nM.
Take `c1cc2c(cc1CN1CCCC1)OC1(CCN(C3CCC3)CC1)C2` [Compound 45, 1′-Cyclobutyl-6-(pyrrolidin-1-ylmethyl)-3H-spiro[benzofuran-2,4′-piperidine]]: the IC50 under setting [1] was at most 100 nM.
On to `c1cn2cc(-c3ccc4c(c3)CC3(CCN5CCCCC5C3)O4)ccc2n1` (stereo not shown) [Compound 77, 5-(Imidazo[1,2-a]pyridin-6-yl)-1′,3′,4′,6′,7′,8′,9′,9a′-octahydro-3H-spiro[benzofuran-2,2′-quinolizine]], for which the IC50 under setting [1] is at most 10 nM.
For `Brc1ccc2c(c1)CC1(CCN3CCCCC3C1)O2` (single isomer, unassigned) [Compound 73, 5-Bromo-1′,3′,4′,6′,7′,8′,9′,9a′-octahydro-3H-spiro[benzofuran-2,2′-quinolizine]], under setting [1], the IC50 is at most 100 nM.
`Brc1ccc2c(c1)CC1(CCN(Cc3c[nH]cn3)CC1)O2` [Compound 26, 1′-((1H-Imidazol-4-yl)methyl)-5-bromo-3H-spiro[benzofuran-2,4′-piperidine]]: the IC50 (histamine H3 in vitro assay, read-out: IC50 values) is over 1000 nM.
Regarding `COc1ccnc(-c2ccc3c(c2)OC2(CCN(C4CCC4)CC2)C3)n1` [Compound 36, 1′-Cyclobutyl-6-(4-methoxypyrimidin-2-yl)-3H-spiro[benzofuran-2,4′-piperidine]], the IC50 under setting [1] was at most 100 nM.
Still for that read-out and setting: with “5-(Morpholinomethyl)-2′,3′,4′,6′,7′,9′,10′,10a′-octahydro-1′H,3H-spiro[benzofuran-2,8′-pyrido[1,2-a]azepine] and 5-(morpholinomethyl)-2′,3′,4′,6′,7′,8′,10′,10a′-octahydro-1′H,3H-spiro[benzofuran-2,9′-pyrido[1,2-a]azepine] [87/87a]” the figure was at most 100 nM.

The values are drawn from patent US20120077802A1 (SUNOVION PHARMACEUTICALS INC., priority 2009, published 2012).
